target: Glutamate NMDA receptor; test: Tested for the binding potency against NMDA site of the glutamate receptor complex using rat brain cortical membranes in a competitive binding assay with [3H]CPP as radioligand; format: cell membranes, Membrane

| Structure (SMILES) | IC50 |
| --- | --- |
| CC(C(=O)CP(=O)(O)O)C(N)C(=O)O (centres undefined) | 7000 nM |
| COC(=O)[C@H](N)CC(=O)CP(=O)(O)O | 1700 nM |
| CC(C(=O)C[C@@H](N)C(=O)O)P(=O)(O)O (some centres undefined) | 1800 nM |
| COP(=O)(O)CC(=O)CC(N)C(=O)O (centres undefined) | 5000 nM |
| CC(N)(CC(=O)CP(=O)(O)O)C(=O)O (centres undefined) | 20000 nM |
| CO/N=C(/C[C@@H](N)C(=O)O)CP(=O)(O)O | 600 nM |
| N[C@H](CC(=O)CP(=O)(O)O)C(=O)O | 110 nM |
| N[C@H](C/C(CP(=O)(O)O)=N/OCc1ccccc1)C(=O)O | 500 nM |
| N[C@H](C/C(CP(=O)(O)O)=N/O)C(=O)O | 200 nM |
